Data: ChEMBL document CHEMBL5126584, “Synthesis of AC1903 analogs as potent transient receptor potential canonical channel 4/5 inhibitors and biological evaluation” (Bioorg Med Chem, 2022)
Active and inactive are the calls of the source. The rule behind the calls is not given here.

Legend:
[1] = target: T1, Short transient receptor potential channel 5 (Homo sapiens, UniProt Q9UL62); test: Inhibition of human TRPC5 channel expressed in HEK293 cells assessed as inhibition of EA-evoked Calcium influx by measuring reduction in intracellular Ca2+ level and measured upto 360 sec by Fluo-4/AM dye based FLIPR assay; type: cell-based
T1 sequence (Q9UL62 whole entry): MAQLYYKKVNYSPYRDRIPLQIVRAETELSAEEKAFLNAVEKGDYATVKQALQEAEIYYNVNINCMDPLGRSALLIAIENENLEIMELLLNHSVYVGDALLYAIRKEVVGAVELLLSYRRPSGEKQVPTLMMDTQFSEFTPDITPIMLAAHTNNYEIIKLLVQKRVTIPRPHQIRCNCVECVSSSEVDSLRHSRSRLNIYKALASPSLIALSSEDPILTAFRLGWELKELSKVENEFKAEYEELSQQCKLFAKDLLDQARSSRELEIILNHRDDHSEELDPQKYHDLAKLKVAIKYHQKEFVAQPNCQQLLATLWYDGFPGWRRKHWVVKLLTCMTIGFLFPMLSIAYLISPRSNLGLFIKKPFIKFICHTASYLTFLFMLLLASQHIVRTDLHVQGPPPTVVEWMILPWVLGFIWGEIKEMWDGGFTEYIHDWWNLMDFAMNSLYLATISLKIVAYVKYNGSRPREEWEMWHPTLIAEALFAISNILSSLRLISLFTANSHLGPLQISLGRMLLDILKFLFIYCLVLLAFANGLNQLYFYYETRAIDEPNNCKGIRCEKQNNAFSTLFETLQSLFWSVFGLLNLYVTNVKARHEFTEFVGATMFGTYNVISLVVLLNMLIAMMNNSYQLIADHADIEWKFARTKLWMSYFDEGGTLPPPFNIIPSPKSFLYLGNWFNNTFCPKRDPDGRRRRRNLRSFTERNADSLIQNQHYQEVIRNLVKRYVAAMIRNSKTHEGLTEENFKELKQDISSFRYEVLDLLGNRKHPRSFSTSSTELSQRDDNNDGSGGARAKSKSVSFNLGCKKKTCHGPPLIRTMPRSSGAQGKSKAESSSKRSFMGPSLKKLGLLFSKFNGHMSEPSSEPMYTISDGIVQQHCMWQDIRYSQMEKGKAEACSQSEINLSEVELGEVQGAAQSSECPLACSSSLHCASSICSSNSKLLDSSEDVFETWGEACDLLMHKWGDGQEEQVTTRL

MPC-5 [2] = test: Protective effect against protamine sulfate induced cytoskeleton rearrangement in mouse MPC-5 cell assessed as reduction in aggregated stress fibers at 10 uM pretreatment followed by PS stimulation and measured after 2 hrs by phalloidin and Hoechst 33342 staining based fluorescence analysis; type: functional
[3] = target: T2, Short transient receptor potential channel 4 (Homo sapiens, UniProt Q9UBN4); test: Inhibition of human TRPC4 channel expressed in HEK293 cells assessed as inhibition of EA-evoked Calcium influx by measuring reduction in intracellular Ca2+ level and measured upto 360 sec by Fluo-4/AM dye based FLIPR assay; type: cell-based
T2 sequence (Q9UBN4 whole entry): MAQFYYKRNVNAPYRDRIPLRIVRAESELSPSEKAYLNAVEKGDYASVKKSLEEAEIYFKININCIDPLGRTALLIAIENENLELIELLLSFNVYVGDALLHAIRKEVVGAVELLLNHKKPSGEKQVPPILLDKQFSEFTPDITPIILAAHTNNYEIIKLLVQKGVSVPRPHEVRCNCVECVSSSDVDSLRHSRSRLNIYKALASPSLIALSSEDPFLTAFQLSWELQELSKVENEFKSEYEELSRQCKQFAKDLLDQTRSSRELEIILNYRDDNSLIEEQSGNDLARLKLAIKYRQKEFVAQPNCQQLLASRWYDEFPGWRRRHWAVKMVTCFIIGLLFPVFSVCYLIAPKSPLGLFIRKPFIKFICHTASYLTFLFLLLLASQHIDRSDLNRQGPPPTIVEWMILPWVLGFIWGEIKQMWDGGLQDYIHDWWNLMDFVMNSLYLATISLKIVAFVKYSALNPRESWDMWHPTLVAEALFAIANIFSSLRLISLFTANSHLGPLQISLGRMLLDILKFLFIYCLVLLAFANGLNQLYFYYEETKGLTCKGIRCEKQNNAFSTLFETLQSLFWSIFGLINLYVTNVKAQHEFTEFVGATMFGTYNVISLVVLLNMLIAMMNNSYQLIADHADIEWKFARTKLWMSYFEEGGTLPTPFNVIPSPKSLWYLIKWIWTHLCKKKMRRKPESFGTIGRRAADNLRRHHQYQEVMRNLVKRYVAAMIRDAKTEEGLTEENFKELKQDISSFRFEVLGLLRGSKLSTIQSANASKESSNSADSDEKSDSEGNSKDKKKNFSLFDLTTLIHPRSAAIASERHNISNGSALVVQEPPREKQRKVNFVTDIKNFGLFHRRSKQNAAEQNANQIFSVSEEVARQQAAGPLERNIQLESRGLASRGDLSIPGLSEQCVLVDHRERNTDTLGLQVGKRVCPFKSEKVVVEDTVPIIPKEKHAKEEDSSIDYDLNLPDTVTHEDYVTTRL

HaCaT [4] = test: Inhibition of IL-17 induced cell proliferation in human HaCaT cells assessed as decrease in BrdU positive (BrdU+) cells at 10 uM and measured after 24 hrs by BrdU incorporation assay; type: functional, cell-based
HaCaT [5] = test: Inhibition of IL-17 induced cell proliferation in human HaCaT cells assessed as decrease in BrdU positive (BrdU+) cells at 0.3 to 3 uM and measured after 24 hrs by BrdU incorporation assay; type: functional, cell-based; details: dose 0.3-3 µM
HaCaT [6] = test: Inhibition of IL-17 induced inflammation in human HaCaT cells assessed as reduction in CCL-20 mRNA level at 0.3 to 3 uM by qRT-PCR analysis; type: functional, cell-based; details: dose 0.3-3 µM
MPC-5 [7] = test: Protective effect against protamine sulfate induced cytoskeleton rearrangement in mouse MPC-5 cell assessed as reduction in aggregated stress fibers at 1 to 3 uM pretreatment followed by PS stimulation and measured after 2 hrs by phalloidin and Hoechst 33342 staining based fluorescence analysis; type: functional; details: dose 1-3 µM
HaCaT [8] = test: Inhibition of IL-17 induced inflammation in human HaCaT cells assessed as reduction in IL-8 mRNA level at 0.3 to 3 uM by qRT-PCR analysis; type: functional, cell-based; details: dose 0.3-3 µM
HaCaT [9] = test: Inhibition of IL-17 induced inflammation in human HaCaT cells assessed as reduction in IL-6 mRNA level at 0.3 to 3 uM by qRT-PCR analysis; type: functional, cell-based; details: dose 0.3-3 µM

Row | Compound | IC50 [1] [nM] | further results
1 | CCc1ccc2c(c1)nc(N1CCOCC1)n2Cc1ccccc1 | > 10000 | –
2 | c1ccc(Cn2c(NCc3ccco3)nc3ccccc32)cc1 | 65000 | Activity (MPC-5 [2]): Active; IC50 [3]: 77200 nM; inhibition (HaCaT [4]): Active
3 | CCc1ccc2c(c1)nc(NCc1ccc(Cl)o1)n2Cc1ccccc1 | 2210 | –
4 | CCc1ccc2c(c1)nc(NCC1CCOC1)n2Cc1ccccc1 (stereo not given) | 2270 | –
5 | CCc1ccc2c(c1)nc(NCCc1ccco1)n2Cc1ccccc1 | 1020 | –
6 | CCCc1ccc2c(c1)nc(NCc1ccco1)n2Cc1ccccc1 | 1340 | –
7 | Cc1ccc2nc(NCc3ccco3)n(Cc3ccccc3)c2c1 | > 10000 | –
8 | CCc1ccc2c(c1)nc(NCCN1CCOCC1)n2Cc1ccccc1 | 2640 | –
9 | CCc1ccc2c(c1)nc(NCCN1CCCCC1)n2Cc1ccccc1 | 3350 | –
10 | CCc1ccc2c(c1)nc(NCC1CCCO1)n2Cc1ccccc1 (stereo not given) | 1820 | –
11 | CCc1ccc2c(c1)nc(NCc1ccco1)n2Cc1ccc(C(F)(F)F)cc1 | 1350 | –
12 | CCc1ccc2c(c1)nc(NCc1ccco1)n2Cc1ccc(OC)cc1 | 2210 | –
13 | CCc1ccc2c(c1)nc(NCc1ccco1)n2Cc1ccc(OC(F)(F)F)cc1 | 920 | –
14 | Cc1ccc2c(c1)nc(NCc1ccco1)n2Cc1ccccc1 | 670 | –
15 | Oc1ccc2c(c1)nc(NCc1ccco1)n2Cc1ccccc1 | > 10000 | –
16 | CCc1ccc2c(c1)nc(NCCc1ccncc1)n2Cc1ccccc1 | 2950 | –
17 | CCc1ccc2c(c1)nc(NCc1ccco1)n2Cc1cccc(C(F)(F)F)c1 | 2240 | –
18 | CCc1ccc2c(c1)nc(N1CCC(C)CC1)n2Cc1ccccc1 | > 10000 | –

Row | Compound | IC50 [1] [nM] | further results
19 | CCc1ccc2c(c1)nc(NCc1ccco1)n2Cc1ccc(F)cc1 | 960 | –
20 | CCc1ccc2c(c1)nc(NCc1ccc(C#N)o1)n2Cc1ccccc1 | > 10000 | –
21 | C=Cc1ccc2c(c1)nc(NCc1ccco1)n2Cc1ccccc1 | > 10000 | –
22 | C#Cc1ccc2c(c1)nc(NCc1ccco1)n2Cc1ccccc1 | > 10000 | –
23 | CCc1ccc2c(c1)nc(N1CC3CCC(C1)O3)n2Cc1ccccc1 | > 10000 | –
24 | CCc1ccc2c(c1)nc(NCc1cccs1)n2Cc1ccccc1 | 2410 | –
25 | CC(C)c1ccc2c(c1)nc(NCc1ccco1)n2Cc1ccccc1 | 570 | –
26 | CCc1ccc2c(c1)nc(N1CCN(C)CC1)n2Cc1ccccc1 | > 10000 | –
27 | CCc1ccc2c(c1)nc(NCc1ccccn1)n2Cc1ccccc1 | 3130 | –
28 | CCc1ccc2c(c1)nc(NCc1ccco1)n2Cc1ccccc1 | 540 | inhibition (HaCaT [5]): Active; inhibition (HaCaT [6]): Active; Activity (MPC-5 [7]): Active; inhibition (HaCaT [8]): Active; inhibition (HaCaT [9]): Active; IC50 [3]: 2060 nM
29 | CCc1ccc2c(c1)nc(N1CCC3(CCCO3)CC1)n2Cc1ccccc1 | > 10000 | –
30 | CCc1ccc2c(c1)nc(N1CC3(COC3)C1)n2Cc1ccccc1 | > 10000 | –
31 | CCc1ccc2c(c1)nc(NCc1ccco1)n2Cc1ccccc1C(F)(F)F | > 10000 | –
32 | CCc1ccc2c(c1)nc(NCc1ccco1)n2Cc1ccc(C)cc1 | 4630 | –
33 | CCc1ccc(Cn2c(NCc3ccco3)nc3cc(CC)ccc32)cc1 | 2300 | –
34 | c1ccc(Cn2c(NCc3ccco3)nc3cc(C4CC4)ccc32)cc1 | 820 | –
35 | CCc1ccc2nc(NCc3ccco3)n(Cc3ccccc3)c2c1 | > 10000 | –
36 | CCc1ccc2c(c1)nc(NCc1ccc(C)o1)n2Cc1ccccc1 | 2930 | –
